Experiments:
[1] = target: T1, α-synuclein (α-syn) aggregates in PD brain homogenates (Homo sapiens, UniProt P37840); test: Two point screening assay (30 nM and 300 nM) vs [3H]asyn-44 in human PD brain homogenates; format: binding; settings: for % [3H]asyn-44 remaining at 30 nM: 30 nM competitor; for % [3H]asyn-44 remaining at 300 nM: 300 nM competitor
T1 construct: Anterior cingulate cortex tissue from a Parkinson’s disease (PD) case; tissue Banner Sun Health Research Institute (Dr. Thomas Beach); host or cells: post-mortem human PD anterior cingulate cortex homogenate
Protocol: Screening assays for the test compounds were performed at two concentrations—30 nM and 300 nM—using unlabelled competitors in human PD brain homogenates against [^3H]asyn-44 as previously described. […] Each assay was conducted in triplicate for both concentrations to ensure reproducibility and statistical reliability.

[2] = target: T1, α-synuclein (α-syn) aggregates in PD brain homogenates; test: In vitro competition (Ki) assay vs [3H]asyn-44 in PD brain homogenates; format: binding; settings: 1 nM [3H]asyn-44
Protocol: Anterior cingulate cortex tissue from a Parkinson’s disease (PD) case was generously provided by Dr. Thomas Beach at the Banner Sun Health Research Institute in Arizona, USA. […] Preparation of the frozen blocks for binding assays followed previously established protocols.
The equilibrium inhibition constants (Ki) for the unlabelled compounds were measured against [^3H]asyn-44 using our previously reported procedure. For these assays, frozen aliquots of homogenized human brain tissue (stored at −80 °C) were used. Homogenates were prepared at 10 mg/mL in phosphate-buffered saline, then diluted with 50 mM Tris buffer (pH 7.0) to a working concentration of 1 mg/mL.
Unlabeled competitor compounds were initially dissolved in DMSO at 400 μM, then diluted with Tris buffer to 20 μM, resulting in a 5% DMSO concentration. A serial dilution series (ranging from 6 μM to 4 nM) was prepared in the same 5% DMSO/Tris buffer solution to maintain consistent solvent conditions throughout the assay.
To perform the binding assay, 50 μL of the appropriately diluted competitor solution was mixed with 50 μL of [^3H]asyn-44 (1 nM final concentration) and 800 μL of Tris buffer containing 20% ethanol and 0.1% bovine serum albumin (BSA). Then, 100 μL of the 1 mg/mL brain homogenate was added, bringing the final tissue concentration to 100 μg/mL. The reaction mixtures were incubated at room temperature for 60 min before filtration through Whatman GF/B glass fibre filters using a Brandel M-24R cell harvester (Gaithersburg, MD, USA). Filters were washed three times with 3 mL of Tris buffer containing 20% ethanol and 0.1% BSA.
After washing, retained radioactivity was measured using CytoScint-ES scintillation fluid following thorough vortexing. Specific binding was calculated by correcting for nonspecific binding (as described later), and the amount of bound radioligand was derived from the filter-associated radioactivity and the molar activity of the tritiated compound.

SMILES | % [3H]asyn-44 remaining at 30 nM [1] [%] | % [3H]asyn-44 remaining at 300 nM [1] [%] | Ki [2] [nM]
CC1CCN(c2ncc(-c3ccc4sc(-c5cccnc5)cc4n3)cc2F)C1 (stereo not shown) [LMD-001] | 72 | 39 | 
Fc1cc(-c2ccc3sc(-c4cccnc4)cc3n2)cnc1N1CCCC1 [LMD-002] | 57 | 21 | 
Cn1ccc(-c2cc3nc(-c4ccc(N5CCC(F)C5)nc4)ccc3s2)n1 (stereo not shown) [LMD-005] | 112 | 64 | 
FC1CCN(c2cnc(-c3ccc4sc(-c5cccnc5)cc4n3)cn2)C1 (stereo not shown) [LMD-009] | 45 | 17 | 
Cn1ccc(-c2cc3nc(-c4cnc(N5CCC(F)C5)cn4)ccc3s2)n1 (stereo not shown) [LMD-013] | 87 | 58 | 
F[C@@H]1CCN(c2cnc(-c3ccc4sc(-c5cncs5)cc4n3)cn2)C1 [LMD-014] | 45 | 20 | 
COc1cncc(-c2cc3nc(-c4cnc(N5CCC(F)C5)cn4)ccc3s2)c1 (stereo not shown) [LMD-015] | 46 | 21 | 
Cn1ccc(N2Cc3nc(-c4ccc(N5CCC(F)C5)nc4)ccc3C2=O)n1 (stereo not shown) [LMD-016] | 91 | 48 | 
Cn1ccc(N2Cc3nc(-c4cnc(N5CCC(F)C5)cn4)ccc3C2=O)n1 (stereo not shown) [LMD-017] | 43 | 25 | 
O=C1c2ccc(-c3ccc(N4CCC(F)C4)nc3)nc2CN1c1cccnc1 (stereo not shown) [LMD-019] | 66 | 27 | 
Cn1cnc(N2Cc3nc(-c4ccc(N5CCC(F)C5)nc4)ccc3C2=O)c1 (stereo not shown) [LMD-023] | 99 | 50 | 
FC1CCN(c2ccc(-c3cc4nc(-c5cccnc5)ccc4s3)cn2)C1 (stereo not shown) [LMD-024] | 72 | 13 | 54
FC1CCN(c2ccc(-c3csc4ccc(-c5cccnc5)nc34)cn2)C1 (stereo not shown) [LMD-026] | 56 | 25 | 
FC1CCN(c2ccc(-n3cc4sc(-c5cncs5)cc4n3)cn2)C1 (stereo not shown) [LMD-028] | 81 | 38 | 
FC1CCN(c2cnc(-n3cc4sc(-c5cncs5)cc4n3)cn2)C1 (stereo not shown) [LMD-029] | 34 | 12 | 13
FC1CCC(c2cnc(-n3cc4sccc4n3)cn2)C1 (stereo not shown) [LMD-031] | 66 | 24 | 
F[C@@H]1CCN(c2cnc(-n3cc4sc(-c5cccnc5)cc4n3)cn2)C1 [LMD-033] | 51 | 33 | 
FC1CCN(c2cnc(-c3ccc4sccc4n3)cn2)CC1 [LMD-036] | 65 | 23 | 
FC1CCN(c2cnc(-c3ccc4sccc4n3)cn2)C1 (stereo not shown) [LMD-039] | 57 | 27 | 
FC1CCN(c2ccc(-c3ccc4scc(Br)c4n3)cn2)C1 (stereo not shown) [LMD-040] | 54 | 28 | 

SMILES | % [3H]asyn-44 remaining at 30 nM [1] [%] | % [3H]asyn-44 remaining at 300 nM [1] [%] | Ki [2] [nM]
FC1CCN(c2ccc(-c3ccc4scc(-c5cccnc5)c4n3)cn2)C1 (stereo not shown) [LMD-041] | 77 | 13 | 58
FC1CCN(c2cc(Cl)ncc2-c2ccc3sc(-c4cccnc4)cc3n2)C1 (stereo not shown) [LMD-049] | 89 | 35 | 
Cn1ccc(-c2cc3nn(-c4cnc(N5CCC(F)C5)cn4)cc3s2)n1 (stereo not shown) [LMD-054] | 58 | 15 | 24
Cn1ccc(-c2cc3nc(-c4cnc(N5CCC(F)CC5)cn4)ccc3s2)n1 [LMD-060] | 48 | 29 | 
FC1CCN(c2ccnc(-n3cc4sc(-c5cccnc5)cc4n3)n2)C1 (stereo not shown) [LMD-061] | 56 | 29 | 
FC1CCN(c2cnc(-c3ccc4sc(-c5cncs5)cc4n3)cn2)CC1 [LMD-062] | 43 | 32 | 
Cn1ccc(-c2csc3ccc(-c4ccc(N5CCC(F)C5)nc4)nc23)n1 (stereo not shown) [LMD-063] | 64 | 33 | 
O=C1NCc2nc(-c3ccc(N4CCC(F)C4)nc3)ccc21 (stereo not shown) [LMD-064] | 46 | 26 | 
Cn1ccc(-c2cc3nn(-c4cnc(N5CCC(F)CC5)cn4)cc3s2)n1 [LMD-066] | 76 | 51 | 
Cn1ccc(-c2cc3nn(-c4ccc(N5CCC(F)C5)nn4)cc3s2)n1 (stereo not shown) [LMD-067] | 86 | 28 | 
FC1CCN(c2cc(-n3cc4sc(-c5cccnc5)cc4n3)ncn2)CC1 [LMD-068] | 50 | 34 | 
FC1CCN(c2ccnc(-n3cc4sc(-c5cccnc5)cc4n3)n2)CC1 [LMD-069] | 49 | 31 | 
FC1CCN(c2ccnc(-n3ncc4sc(-c5cccnc5)cc43)n2)C1 (stereo not shown) [LMD-070] | 43 | 22 | 
Cn1ccc(-c2cc3c(cnn3-c3ccc(N4CCC(F)C4)nn3)s2)n1 (stereo not shown) [LMD-072] | 48 | 33 | 
FC1CCN(c2cc(-n3ncc4sc(-c5cccnc5)cc43)ncn2)C1 (stereo not shown) [LMD-073] | 71 | 29 | 
Cn1ccc(-c2cc3nn(-c4cc(N5CCC(F)CC5)ncn4)cc3s2)n1 [LMD-074] | 55 | 45 | 
Cn1ccc(-c2cc3nn(-c4nccc(N5CCC(F)CC5)n4)cc3s2)n1 [LMD-075] | 41 | 19 | 
Cn1ccc(-c2cc3c(cnn3-c3nccc(N4CCC(F)CC4)n3)s2)n1 [LMD-076] | 64 | 22 | 
Cn1ccc(-c2cc3c(cnn3-c3cc(N4CCC(F)CC4)ncn3)s2)n1 [LMD-077] | 67 | 20 | 
